# Data: patent publication US11319324B2, “Pyrazolo-pyrrolo-pyrimidine-dione derivatives as P2X3 inhibitors” (Bayer Aktiengesellschaft, priority 2017, dated 2022)
# Counter-ions that a name gives are not always drawn.
# Tests used:
# Format in all cases: cell-based
# human P2X2/3 receptors = molecular target: T1, human P2X2/3 receptors (Homo sapiens, UniProt P56373+Q9UBL9); experiment: Intracellular calcium measurement, antagonist activity at human P2X2/3 receptors (hP2X23 1321N1), Fluo8; details: for IC50: column 4); 1321N1 cells, human P2X2/3, Fluo8, agonist ATP at EC50; read-out: 4) hP2X2/3 IC50 [nM] (1321N1); for hP2X23/hP2X3* Selectivity (1321N1): ratio of column 4) hP2X2/3 to column 3) hP2X3, 1321N1
# T1 construct: expressed in transfected cells; host or cells: human astrocytoma 1321N1 (1312N1 [sic])
# T1 sequence (P56373 1-397): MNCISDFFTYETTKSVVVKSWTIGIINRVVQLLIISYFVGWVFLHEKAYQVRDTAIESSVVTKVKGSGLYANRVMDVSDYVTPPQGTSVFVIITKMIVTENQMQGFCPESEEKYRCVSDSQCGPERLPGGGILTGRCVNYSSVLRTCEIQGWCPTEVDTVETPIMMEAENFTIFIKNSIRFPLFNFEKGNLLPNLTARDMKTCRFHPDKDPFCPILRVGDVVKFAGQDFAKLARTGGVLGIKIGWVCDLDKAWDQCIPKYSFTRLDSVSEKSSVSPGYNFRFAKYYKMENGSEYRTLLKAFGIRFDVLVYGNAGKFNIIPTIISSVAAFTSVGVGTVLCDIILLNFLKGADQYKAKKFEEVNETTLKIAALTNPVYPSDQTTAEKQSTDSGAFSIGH
# T1 sequence (Q9UBL9 1-471): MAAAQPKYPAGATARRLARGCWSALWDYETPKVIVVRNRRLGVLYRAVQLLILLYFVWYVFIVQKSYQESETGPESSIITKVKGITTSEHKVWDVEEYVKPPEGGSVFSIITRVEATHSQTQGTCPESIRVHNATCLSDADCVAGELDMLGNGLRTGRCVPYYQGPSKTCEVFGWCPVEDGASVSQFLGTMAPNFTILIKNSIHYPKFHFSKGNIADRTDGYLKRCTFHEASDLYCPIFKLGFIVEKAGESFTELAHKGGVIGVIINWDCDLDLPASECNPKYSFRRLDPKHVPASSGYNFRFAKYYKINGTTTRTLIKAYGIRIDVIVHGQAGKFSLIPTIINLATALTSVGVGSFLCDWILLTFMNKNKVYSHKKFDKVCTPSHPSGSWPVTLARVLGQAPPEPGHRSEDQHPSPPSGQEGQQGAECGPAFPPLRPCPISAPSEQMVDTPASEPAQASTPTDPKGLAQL
# Method in brief: (§1)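 Inhibition of ATP-triggered Ca2+ transients is measured in 1321N1 cells expressing P2X3 homotrimers or P2X2/3 heterotrimers.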
# human P2X3 receptor [1] = molecular target: T2, human P2X3 receptor (Homo sapiens, UniProt P56373); experiment: Intracellular calcium measurement to assess antagonist activity at human P2X3 receptors (hP2X3 CHO), photina luminescence; set-up: expressed in transfected cells; host or cells: Chinese hamster ovary (CHO) cells; details: column 2), CHO cells, agonist α,β-methylene-ATP at EC50
# T2 sequence (P56373 1-397): T1 sequence (P56373 1-397)
# Method in brief: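 CHO cells stably expressing human P2X3 and mitochondrial photina, plated the day before at 30 °C, then loaded 3 h at 37 °C in 2 mM Ca-tyrode buffer with 5 μg/ml coelenterazine. Agonist-evoked calcium luminescence read immediately; inhibition seen as signal decrease.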
# human P2X3 receptor [2] = molecular target: T2, human P2X3 receptor; experiment: Intracellular calcium measurement, antagonist activity at human P2X3 receptors (hP2X3 1321N1), Fluo8; set-up: expressed in transfected cells; host or cells: human astrocytoma 1321N1 (1312N1 [sic]); details: column 3); 1321N1 cells, human P2X3, Fluo8, agonist ATP at EC50
# Method in brief: as §1
Structure (SMILES),IC50 (human P2X2/3 receptors),hP2X23/hP2X3* Selectivity (1321N1) (human P2X2/3 receptors),IC50 (human P2X3 receptor [1]),IC50 (human P2X3 receptor [2])
CC(C)N1Cc2c(n(CC(=O)Nc3ccc(F)cn3)c3cc(C4CCOCC4)nn3c2=O)C1=O [Example 58],9850 nM,277,24 nM,36 nM
Cc1ccc(-c2cc3n(CC(=O)Nc4ccc(F)cn4)c4c(c(=O)n3n2)CN(C(C)C)C4=O)cn1 [Example 154],765 nM,96,21 nM,8 nM
CC(C)Cc1cc2n(CC(=O)Nc3ccc(F)cn3)c3c(c(=O)n2n1)CN(C(C)C)C3=O [Example 82],1870 nM,239,6 nM,8 nM
CCc1cc2n(CC(=O)Nc3ccc(F)cn3)c3c(c(=O)n2n1)CN(C1CCN(C(=O)OC(C)(C)C)C1)C3=O (centres unmarked) [Example 78],6100 nM,98,21 nM,62 nM
CCc1cc2n(CC(=O)Nc3ccc(F)cn3)c3c(c(=O)n2n1)CN(CC1CCCN1C(=O)OC(C)(C)C)C3=O (centres unmarked) [Example 81],2600 nM,61,103 nM,42 nM
"CCc1cc2n(CC(=O)Nc3ccc(F)cn3)c3c(c(=O)n2n1)CN(C[C@@H]1CN(C(=O)OC(C)(C)C)CCO1)C3=O [Example 90, Tert-butyl(2R)-2-{[2-ethyl-4-{2-[(5-fluoropyridin-2-yl)amino]-2-oxoethyl}-5,8-dioxo-5,8-dihydro-4H-pyrazolo[1,5-a]pyrrolo[3,4-d]pyrimidin-6(7H)-yl]methyl}morpholine-4-carboxylate]",3450 nM,27,94 nM,130 nM
O=C(Cn1c2c(c(=O)n3nc(C4CC4)cc13)CN(CCN1CCOCC1)C2=O)Nc1ccc(F)cn1 [Example 104],> 32000 nM,>267,69 nM,120 nM
CC(C)N1Cc2c(n(CC(=O)Nc3ccc(F)cn3)c3cc(C4CC4)nn3c2=O)C1=O [Example 56],9950 nM,54,73 nM,185 nM
CC(C)N1Cc2c(n(CC(=O)Nc3ccc(F)cn3)c3cc(C(=O)NC4CC4)nn3c2=O)C1=O [Example 79],4800 nM,79,94 nM,61 nM
CCc1cc2n(CC(=O)Nc3ccc(F)cn3)c3c(c(=O)n2n1)CN(Cc1ccncc1)C3=O [Example 106],10500 nM,227,69 nM,46 nM
Cc1cc(-c2cc3n(CC(=O)Nc4ccc(F)cn4)c4c(c(=O)n3n2)CN(C(C)C)C4=O)c(C)cn1 [Example 159],1800 nM,581,13 nM,3 nM
"CC(C)N1Cc2c(n(CC(=O)Nc3ccc(F)cn3)c3cc(Br)nn3c2=O)C1=O [Example 75, 2-[2-bromo-5,8-dioxo-6-(propan-2-yl)-5,6,7,8-tetrahydro-4H-pyrazolo[1,5-a]pyrrolo[3,4-d]pyrimidin-4-yl]-N-(5-fluoropyridin-2-yl)acetamide]",4400 nM,50,29 nM,89 nM

# Results, then the molecule that gave them:
IC50 (human P2X2/3 receptors),hP2X23/hP2X3* Selectivity (1321N1) (human P2X2/3 receptors),IC50 (human P2X3 receptor [1]),IC50 (human P2X3 receptor [2]),Structure (SMILES)
7900 nM,28,330 nM,280 nM,CC(C)N1Cc2c(n(CC(=O)Nc3ccc(F)cn3)c3cc(C4CNC4)nn3c2=O)C1=O.Cl [Example 244]
> 32000 nM,>15,830 nM,2200 nM,"CCc1cc2n(CC(=O)Nc3ccc(F)cn3)c3c(c(=O)n2n1)CN(C[C@@H]1CNCCO1)C3=O [Example 246, 2-{2-ethyl-6-[(2S)-morpholin-2-ylmethyl]-5,8-dioxo-5,6,7,8-tetrahydro-4H-pyrazolo[1,5-a]pyrrolo[3,4-d]pyrimidin-4-yl}-N-(5-fluoropyridin-2-yl)acetamide]"
> 32000 nM,>30,335 nM,1060 nM,"CCc1cc2n(CC(=O)Nc3ccc(F)cn3)c3c(c(=O)n2n1)CN(C[C@H]1CCCN1)C3=O [Example 233, 2-{2-ethyl-5,8-dioxo-6-[(2R)-pyrrolidin-2-ylmethyl]-5,6,7,8-tetrahydro-4H-pyrazolo[1,5-a]pyrrolo[3,4-d]pyrimidin-4-yl}-N-(5-fluoropyridin-2-yl)acetamide hydrochloride (1:1)]"
> 20400 nM,>170,59 nM,120 nM,CC(C)N1Cc2c(n(CC(=O)Nc3ccc(F)cn3)c3cc(NCC(F)F)nn3c2=O)C1=O [Example 170]
> 32000 nM,>47,650 nM,675 nM,"CCc1cc2n(CC(=O)Nc3ccc(F)cn3)c3c(c(=O)n2n1)CN(C1CCNC1)C3=O (single isomer, unassigned) [Example 278, 2-{2-ethyl-5,8-dioxo-6-[pyrrolidin-3-yl]-5,6,7,8-tetrahydro-4H-pyrazolo[1,5-a]pyrrolo[3,4-d]pyrimidin-4-yl}-N-(5-fluoropyridin-2-yl)acetamide]"
4150 nM,277,10 nM,15 nM,COC[C@H](C)N1Cc2c(n(CC(=O)Nc3ccc(F)cn3)c3cc(C(=O)N(C)C4CC4)nn3c2=O)C1=O [Example 196]
6350 nM,150,35 nM,42 nM,CC(C)N1Cc2c(n(CC(=O)Nc3ccc(F)cn3)c3cc(N(C)C)nn3c2=O)C1=O [Example 172]
> 32000 nM,>481,37 nM,67 nM,"CC(C)N1Cc2c(n(CC(=O)Nc3ccc(F)cn3)c3cc(C(=O)N4CCOCC4)nn3c2=O)C1=O [Example 225, N-(5-fluoropyridin-2-yl)-2-[2-(morpholin-4-ylcarbonyl)-5,8-dioxo-6-(propan-2-yl)-5,6,7,8-tetrahydro-4H-pyrazolo[1,5-a]pyrrolo[3,4-d]pyrimidin-4-yl]acetamide]"
> 20200 nM,>223,130 nM,91 nM,"CC(C)N1Cc2c(n(CC(=O)Nc3ccc(F)cn3)c3cc(NCCO)nn3c2=O)C1=O [Example 276, N-(5-fluoropyridin-2-yl)-2-{2-[(2-hydroxyethyl)amino]-5,8-dioxo-6-(propan-2-yl)-5,6,7,8-tetrahydro-4H-pyrazolo[1,5-a]pyrrolo[3,4-d]pyrimidin-4-yl}acetamide]"
1170 nM,16,33 nM,71 nM,CCc1cc2n(CC(=O)Nc3ccc(F)cn3)c3c(c(=O)n2n1)CN(C[C@H]1CN(CCC(F)(F)F)CCO1)C3=O [Example 259]
12000 nM,84,110 nM,143 nM,COCC(=O)Nc1cc2n(CC(=O)Nc3ccc(F)cn3)c3c(c(=O)n2n1)CN(C(C)C)C3=O [Example 285]
> 32000 nM,>91,460 nM,350 nM,CC(C)N1Cc2c(n(CC(=O)Nc3ccc(F)cn3)c3cc(C4CCN(C5CCC5)CC4)nn3c2=O)C1=O [Example 252]
6950 nM,190,73 nM,37 nM,CC(C)N1Cc2c(n(CC(=O)Nc3ccc(F)cn3)c3cc(NCC4CC4)nn3c2=O)C1=O [Example 175]
> 23500 nM,>1175,95 nM,20 nM,"CC(C)N1Cc2c(n(CC(=O)Nc3ccc(F)cn3)c3cc(C4CCOC4)nn3c2=O)C1=O (racemic) [Example 228, 2-{5,8-dioxo-2-[(±)-oxolan-3-yl]-6-(propan-2-yl)-5,6,7,8-tetrahydro-4H-pyrazolo[1,5-a]pyrrolo[3,4-d]pyrimidin-4-yl}-N-(5-fluoropyridin-2-yl)acetamide]"
